We go through one molecule from publication PMC5727165, “A switch in nucleotide affinity governs activation of the Src and Tec family kinases” (Scientific Reports, 2017).

In general, Kd refers to the concentration at which binding is half-saturated. Higher therefore signals a looser complex. A word on the Ki: it is a measure of affinity in units of concentration, obtained from inhibition or displacement.

The target in one assay is T1, Itk^32K (Homo sapiens, UniProt Q08881).
T1 construct: Human Itk^171–620 (Itk^32K); GST (cleaved yes); made in house; host or cells: baculovirus-infected Sf9 insect cells
T1 sequence (Q08881 171-620): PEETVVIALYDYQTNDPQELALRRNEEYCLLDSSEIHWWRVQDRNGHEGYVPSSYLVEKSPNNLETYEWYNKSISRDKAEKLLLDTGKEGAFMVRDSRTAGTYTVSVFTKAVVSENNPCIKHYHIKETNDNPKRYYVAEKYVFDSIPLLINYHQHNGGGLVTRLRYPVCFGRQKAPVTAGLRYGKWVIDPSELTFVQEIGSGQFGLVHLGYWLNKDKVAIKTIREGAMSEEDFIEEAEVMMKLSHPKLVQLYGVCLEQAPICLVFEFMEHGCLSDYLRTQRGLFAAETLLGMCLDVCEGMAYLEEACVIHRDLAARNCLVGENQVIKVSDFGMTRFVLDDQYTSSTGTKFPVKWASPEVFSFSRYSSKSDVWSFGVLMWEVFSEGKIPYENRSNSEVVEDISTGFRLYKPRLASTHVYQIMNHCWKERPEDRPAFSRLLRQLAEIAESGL
Nature of the assay: Fluorescence anisotropy binding of Mant-labelled nucleotides. The conditions noted are these: wild type Itk^32K; 40 μM Mant-nucleotide, 20 °C. An excerpt:
(§1) To characterise the nucleotide binding of Itk and Src, we purified recombinant wild type and mutant constructs of Itk and Src containing their respective SH3, SH2, and kinase domains (from here on referred to as Itk^32K, Src^32K, and Src^32KΔC, Fig. 1a). We confirmed the mass and homogeneity of isolated species by high-resolution anion exchange chromatography, intact mass spectrometry, and Western blotting with phospho-specific antibodies (Supplementary Figs 1–3). We performed fluorescence anisotropy measurements using Mant-labelled nucleotides. […] To avoid autophosphorylation during the course of the titration, we used the non-hydrolysable ATP analogue AMPPNP. […] Src^32K bound ADP approximately 6-fold more tightly than AMPPNP (Supplementary Fig. 4d).
(§2) Human Itk^171–620 (Itk^32K), mouse Src^85-535 (Src^32K), and mouse Src^85-523 (Src^32KΔC) as well as their respective point mutants were expressed as GST fusions in baculovirus-infected Sf9 insect cells. For the generation of Tyr527-phosphorylated Src^85-535, the protein was co-expressed with human Csk using pFastBac Dual (Invitrogen). Proteins were purified by sequential glutathione-sepharose affinity chromatography, TEV cleavage, high-resolution anion exchange, and size exclusion chromatography in a final buffer of 50 mM Tris, pH 7.5, 200 mM NaCl, 1 mM TCEP, 1% (v/v) glycerol.
(§3) The binding constants for ADP and AMPPNP were determined for Src and Itk proteins by fluorescence anisotropy, using 2′/3′-Mant-labelled nucleotides (Jena Bioscience). Increasing concentrations of Itk^32K, Itk^L351A or Src^32K were incubated with 40 μM Mant-nucleotide in 30 mM Tris pH 7.5, 200 mM NaCl, 5 mM MgCl2, and 1 mM TCEP. Measurements were made with a Perkin Elmer LS50B fluorimeter (λex = 355 nm, λem = 447 nm) at 20 °C. For each data point 50–60 measurements, each with an integration time of 1 s, were averaged. For competition nucleotide displacement assays, 40–80 μM of protein was incubated with 40 μM Mant-ADP until equilibrium was established. Unlabelled nucleotide was titrated into the reaction and fluorescence anisotropy monitored. The equilibrium inhibition constant for the unlabelled nucleotide was calculated from the fitted curve.
On the technique in general: In fluorescence polarisation assays a small probe gives low polarisation when free and higher when bound to something large.

The next assay has as its target T2, Src^32K (Mus musculus, UniProt P05480).
T2 construct: mouse Src^85-535 (Src^32K); GST (cleaved yes); made in house; host or cells: baculovirus-infected Sf9 insect cells, co-expressed with human Csk
The assay is described as above.
From the text: as §1, §2, §3

For assay [1], the target named is T3, Src^32KΔC (Mus musculus, UniProt P05480).
T3 construct: mouse Src^85-523 (Src^32KΔC); GST (cleaved yes); made in house; host or cells: baculovirus-infected Sf9 insect cells
The assay is described as follows: Competition nucleotide displacement assay (Mant-ADP, fluorescence anisotropy). The assay is classed as binding. Here is the method: Figure 2 Itk adopts a Src-like autoinhibited conformation. (a) Competition nucleotide displacement assay for Src^32KΔC. 40 μM Src^32KΔC was incubated with 40 μM Mant-ADP until equilibrium was established. Unlabelled ADP or AMPPNP was titrated into the reaction and fluorescence anisotropy monitored. […] (b) Small angle X-ray scattering curves for Itk^32K (cyan), Src^32K (magenta), Src^32KΔC (blue), and Src^32K R175L (green). […] (d) Table of physical parameters obtained from the scattering curves for Itk^32K, Src^32K, Src^32KΔC, and Src^32K R175L. (e)Ab initio model of Itk^32K and docking of autoinhibited Src (2SRC.pdb) into the molecular envelope. Two orientations of the envelope are shown for clarity. (f) Ab initio molecular envelope for Src^32KΔC illustrates the fit of the crystal structure of autoinhibited Src. TEXT PRINTED IN THE PICTURE: (a) ADP: Src^32KΔC Ki (mM): 0.03 ± 0.008 | (a) ANP: Src^32KΔC Ki (mM): 0.69 ± 0.140
as §3

In assay [2] the target is T3, Src^32KΔC. Nature of the assay: Differential scanning fluorimetry (thermal stability vs nucleotide concentration). In kind it is binding. Particulars: vs AMPPNP. The text has this:
Having observed that Itk^32K binds and is stabilised by ADP in the absence of a C-terminal tail, we investigated whether the C-terminal tail of Src influences its nucleotide binding or conformation in vitro, using a construct of Src lacking its C-tail (Src^32KΔC) and a SH2 domain mutant of Src that is incapable of binding phosphotyrosine peptides (Src^32K R175L, Supplementary Fig. 3a,b)[39]. […] Thermal stability measurements support the stabilisation of Src^32KΔC by ADP (Supplementary Fig. 6a). Thermal stabilities as a function of nucleotide concentration were measured by differential scanning fluorimetry (DSF). Samples contained 0.1 mg/ml protein in 50 mM Tris pH 7.5, 150 mM NaCl, 1 mM TCEP, and 5 mM MgCl2 with ADP, ATP, or AMPPNP concentrations ranging from 0–16 mM. Samples were measured in triplicate using a BioRad iQ™5 Multicolor Real-Time PCR Detection System. For detection of phosphorylated protein, samples were diluted and 1 ng and 15 ng were loaded to SDS-PAGE for Src and Itk proteins, respectively. Phosphorylation was measured by immunoblot.
(In DSF a fluorescence change marks the thermal transition of the protein.)

Values joined by “and” are separate entries in the source; they are usually repeats but may differ in a detail not shown here. Equal entries are not always repeated.

T3 sequence (P05480 85-523, stated change not applied): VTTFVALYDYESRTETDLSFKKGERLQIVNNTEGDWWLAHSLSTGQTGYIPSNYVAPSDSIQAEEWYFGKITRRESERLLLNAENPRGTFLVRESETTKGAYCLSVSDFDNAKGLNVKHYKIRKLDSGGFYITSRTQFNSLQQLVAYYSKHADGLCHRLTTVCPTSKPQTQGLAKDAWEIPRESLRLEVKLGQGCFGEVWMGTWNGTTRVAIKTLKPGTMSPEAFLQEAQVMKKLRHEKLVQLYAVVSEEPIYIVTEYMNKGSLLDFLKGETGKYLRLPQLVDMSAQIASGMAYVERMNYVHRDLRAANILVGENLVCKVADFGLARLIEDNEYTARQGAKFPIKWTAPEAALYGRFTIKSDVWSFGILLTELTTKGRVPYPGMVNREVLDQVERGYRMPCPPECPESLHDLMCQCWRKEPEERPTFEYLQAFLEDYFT
T2 sequence (P05480 85-535): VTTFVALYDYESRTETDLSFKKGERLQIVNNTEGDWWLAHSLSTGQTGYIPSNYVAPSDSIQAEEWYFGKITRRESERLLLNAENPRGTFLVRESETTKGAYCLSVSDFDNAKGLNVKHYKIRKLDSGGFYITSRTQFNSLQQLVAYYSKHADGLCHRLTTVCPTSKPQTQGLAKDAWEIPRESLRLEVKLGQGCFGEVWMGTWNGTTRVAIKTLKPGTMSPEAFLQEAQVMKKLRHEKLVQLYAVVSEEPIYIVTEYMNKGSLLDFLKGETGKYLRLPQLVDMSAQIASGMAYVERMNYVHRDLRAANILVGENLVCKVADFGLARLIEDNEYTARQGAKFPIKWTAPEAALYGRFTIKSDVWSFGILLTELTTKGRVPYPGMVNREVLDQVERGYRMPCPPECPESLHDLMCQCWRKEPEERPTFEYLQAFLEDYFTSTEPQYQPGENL

`Nc1ncnc2c1ncn2[C@@H]1O[C@H](COP(=O)(O)OP(=O)(O)O)[C@@H](O)[C@H]1O` [ADP]: the Kd at Itk^32K is 23.7 µM and 24 µM; on Src^32K (Mant-labelled nucleotide), 66 µM. Also, the “fold difference in affinity, ADP tighter than AMPPNP” value at Src^32K (direct Mant-nucleotide binding) is given as “approximately 6 fold”. On Src^32KΔC [1] (40 μM Src^32KΔC, 40 μM Mant-ADP, read-out: Ki (equilibrium inhibition constant)), the Ki worked out at 30 ± 8 µM. Besides, on Src^32KΔC [1] (Src^32KΔC, displacement of Mant-ADP), the “fold difference in Ki, ADP preferred over AMPPNP” value is given as “approximately 23 fold”. The “thermal stabilisation compared with other nucleotides” value at Src^32KΔC [2] is recorded as “higher thermal stability”.
